Test [1] addresses Platelet-activating factor receptor (Mus musculus) (UniProt Q62035). Put plainly: Protection of PAF induced lethality in mouse after intraperitoneal dose of 1 mg/kg in saline 0.5 hr prior to an LD90 of PAF. The class given is functional, organism-based. On the set-up: dose 1 mg/kg.
In another test the test system is Oryctolagus cuniculus. Nature of the test: Protection of PAF induced lethality in rabbit after intraperitoneal dose of 1 mg/kg in saline 0.5 hr prior to an LD90 of PAF. As to conditions: ip. The class given is functional.

Results on 23 molecules are retold here after ChEMBL document CHEMBL1127088, “Analogues of platelet activating factor. 8. Antagonists of PAF containing an aromatic ring linked to a pyridinium ring” (J Med Chem, 1993).

Molecules are shown by their SMILES.

Sequence of Platelet-activating factor receptor (Mus musculus) (Q62035 whole entry): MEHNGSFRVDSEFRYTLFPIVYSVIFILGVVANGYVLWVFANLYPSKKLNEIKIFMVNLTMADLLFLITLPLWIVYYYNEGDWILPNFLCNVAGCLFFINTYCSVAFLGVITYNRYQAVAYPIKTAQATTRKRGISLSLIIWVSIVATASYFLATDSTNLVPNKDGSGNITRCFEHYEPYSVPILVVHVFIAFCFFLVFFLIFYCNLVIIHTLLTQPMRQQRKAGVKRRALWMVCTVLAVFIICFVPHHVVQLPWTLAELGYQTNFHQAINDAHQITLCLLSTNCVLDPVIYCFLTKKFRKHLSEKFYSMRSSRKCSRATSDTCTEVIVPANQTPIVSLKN

In test [1], `CCCCCCCCCCCCCCOc1ccc(C(=O)N(Cc2cccc[n+]2C)C(C)=O)cc1OCCCCCCCCCCCCCC` came in with a Survival of 36%.

In turn, `CCCCCCCCCCCCCCOc1ccc(C(=O)N(Cc2cccc[n+]2C)C(C)=O)cc1` displayed a Survival in test [1] of 27%.

`CCCCCCCCCCCCCCOc1ccc(C(=O)N(Cc2ccc[n+](C)c2)C(C)=O)cc1C(C)(C)C` displayed a Survival in test [1] of 17%.

On to `CCCCCCCCCCCCCCOc1ccc(C(=O)N(Cc2cccc[n+]2Cc2ccccc2)C(C)=O)cc1`, for which the Survival in test [1] turned out to be 0%.

As to `CCCCCCCCCCCCCCOc1ccc(C(=O)N(Cc2cccc[n+]2C)C(C)=O)cc1OC`, in test [1], the Survival was found to be 58%. The survival at 1 mg/kg with Oryctolagus cuniculus was determined as 75%.

Turning to `CCCCCCCCCCCCCCOc1cc(C(=O)N(Cc2cccc[n+]2C)C(C)=O)ccc1OC`, the Survival in test [1] amounted to 21%.

The molecule `CCCCCCCCCCCCCCOc1ccc(CN(Cc2cccc[n+]2CC)C(C)=O)cc1` came in with a Survival in test [1] of 40%.

For the molecule `CCCCCCCCCCCCCCOc1ccc(COC(=O)N(Cc2cccc[n+]2C)C(C)=O)cc1`, the Survival in test [1] worked out at 40%.

With `CCCCCCCCCCCCCCOc1ccc(C(=O)NC(=O)c2cc[n+](CCC)cc2)cc1OC`, in test [1], the Survival is 33%.

For the molecule `CCCCCCCCCCCCCCOc1ccc(C(=O)N(Cc2cccc[n+]2CC)C(C)=O)cc1OC`, in test [1], the Survival was determined as 58%. The same molecule displayed a survival at 1 mg/kg in the test with Oryctolagus cuniculus of 33%.

Regarding `CCCCCCCCCCCCCCOc1ccc(CNC(=O)c2cccc[n+]2CC)cc1`, in test [1], the Survival came to 36%.

Consider `CCCCCCCCCCCCCCOc1ccc(C(=O)NC(=O)c2ccc[n+](CCC)c2)cc1OC`, for which the Survival in test [1] was determined as 42%.

As for `CCCCCCCCCCCCCCOc1ccccc1CN(Cc1cccc[n+]1C)C(C)=O`, the Survival in test [1] worked out at 23%.

On to `CCCCCCCCCCCCCCOc1ccc(COC(=O)NCc2cccc[n+]2CC)cc1`, for which the Survival in test [1] is 36%.

Turning to `CCCCCCCCCCOc1ccc(C(=O)N(Cc2cccc[n+]2C)C(C)=O)cc1C(C)(C)C`, the Survival in test [1] amounted to 50%.

As to `CCCCCCCCCCCCCCCCCCNC(=O)Oc1ccc(C(=O)N(Cc2cccc[n+]2C)C(C)=O)cc1C(C)(C)C`, the Survival in test [1] worked out at 29%.

Take `CCCCCCCCCCCCCCOc1ccc(C(=O)N(Cc2cccc[n+]2C)C(C)=O)cc1C(C)(C)C`: the Survival in test [1] worked out at 64%. This molecule also had a survival at 1 mg/kg in the test on Oryctolagus cuniculus of 100%.

On to `CCCCCCCCCCCCCCOc1ccc(C(=O)N(Cc2cc[n+](C)cc2)C(C)=O)cc1C(C)(C)C`, for which, in test [1], the Survival worked out at 27%.

`CCCCCCCCCCCCCCOc1cccc(OP(=O)([O-])Oc2cccc(C[n+]3csc(C)c3)c2)c1C(=O)OC`: the Survival in test [1] worked out at 85%. In the test with Oryctolagus cuniculus, this molecule displayed a survival at 1 mg/kg of 53%.

In test [1], `CCCCCCCCCCCCCCOc1ccc(C(=O)N(Cc2cccc[n+]2CCC)C(C)=O)cc1OC` registered a Survival of 47%.

In turn, `CCCCCCCCCCCCCCOc1ccc(CN(Cc2cc[n+](C)cc2)C(C)=O)cc1` gave a survival at 1 mg/kg with Oryctolagus cuniculus of 0%.

`CCCCCCCOc1ccc(C(=O)N(Cc2cccc[n+]2C)C(C)=O)cc1OCCCCCCC`: in test [1], the Survival came to 45%. This molecule came in with a survival at 1 mg/kg in the test on Oryctolagus cuniculus of 0%.

Molecule `CCCCCCCCCCCCCCOc1ccc(CN(Cc2ccc[n+](C)c2)C(C)=O)cc1` showed a Survival in test [1] of 38%.
